From patent publication US20180271923A1, “COMPOSITION FOR PREVENTING OR TREATING MENOPAUSAL DISORDERS, CONTAINING TETRAGONIA TETRAGONOIDES (PALL.) KUNTZE EXTRACT” (Korea Institute of Oriental Medicine, priority 2015, published 2018)
Marks after values point to notes of the source that are not given here.

Tests used:
Format in all cases: in vivo
ovariectomized rats [1] = test: Evaluation on menopause inducement in ovariectomized rats (weight of uterus, serum 17β-estradiol by RIA kit); settings: n = 12, means ± SD, Table 1
Experimental: Rats were ovariectomized to induce menopause, and weight of uterus and serum levels of 17β-estradiol that is a kind of female hormones were measured to determine whether menopause was induced in the rats. Specifically, the rats were sacrificed, and then their uteri were removed and weighed. A serum concentration of 17β-estradiol was measured with an RIA kit (Linco Research Inc.).

ovariectomized rats [2] = test: Energy consumption by indirect calorimetry in ovariectomized rats; settings: indirect calorimetry after 8 weeks, 6 hours fasting, n = 12, means ± SD
Source text: Specifically, the ovariectomized rats were fed with a high-fat diet (HFD) consisting of 40% energy (En %) of carbohydrate, 20 En % of protein, and 40 En % of fat, along with dextrin. The high-fat diet was made to contain 2% (w/w) of the Tetragonia tetragonoides (Pall.) Kuntze extract, and the rats were offered ad libitum access to the diet for 8 weeks. On the other hand, in the positive-control, the ovariectomized rats received 17β-estradiol which is a hormone preparation and were fed with a diet in which the high fat diet is mixed with dextrin for 8 weeks. Then, at the end of the experiment, a body weight, a mass of visceral fat including peri-uterine fat and fat in retroperitoneum, an energy consumption, and the like were measured. The energy consumption was analyzed by indirect calorimetry. Specifically, after the Tetragonia tetragonoides (Pall.) Kuntze extract was fed for 8 weeks, and a fasting state of 6 hours was induced, the energy consumption was measured at the time of beginning of a dark period in light/dark cycle. In order to analyze calorimetric parameters, a metabolic chamber (airflow=800 ml/min) equipped with a computer-controlled O2 and CO2 measurement system (BIOPAC Systems, Inc., Goleta, Calif.) was utilized, and respiratory quotient (RQ) and resting energy expenditure (REE) were calculated using equations. An average oxygen uptake (VO2) and an average carbon dioxide emission (VCO2) were measured over 30 minutes. After the experiment, data were averaged at 1 minute intervals and the VO2 and VCO2 values were calibrated to a body size (kg^0.75). Oxidation of carbohydrate and fat was calculated as a non-protein oxygen uptake, that is, a relative oxidation rate and an oxygen amount consumed per gram (g) of oxidized substrate.

ovariectomized rats [3] = test: Serum triglyceride, glucose, insulin, cholesterol levels and HOMA-IR in overnight-fasted ovariectomized rats; settings: n = 12, means ± SD
Experimental: In order to confirm efficacies of the Tetragonia tetragonoides (Pall.) Kuntze extract prepared according to Preparation Example 1 for ameliorating menopausal obesity, rats were ovariectomized and, at the same time, obesity-induced. The rats were fed with the Tetragonia tetragonoides (Pall.) Kuntze extract, and effects of the extract on obesity-related parameters in blood were evaluated. The ovariectomized rats were fed with the Tetragonia tetragonoides (Pall.) Kuntze by the method according to Example 1-1. Then, at the end of the experiment, the rats were fasted overnight and masses of serum glucose, insulin, and triglyceride were measured. Specifically, the rats were fasted for 16 hours, and then blood was collected from tails. Fasting serum glucose levels were measured by a Beckman glucometer and serum insulin concentrations were measured by radioimmunoassay. Fasting blood glucose, food and water intake, and body weight were measured at 10 a.m. on every Tuesday. Based on the above results, a homeostasis model assessment of insulin resistance (HOMA-IR) concentration which is used as a marker of insulin resistance was calculated, and the following Equation 1 was used for such calculation. HOMA-IR=fasting insulin(μIU/ml)×fasting glucose(mM)/22.5 [Equation 1]

ovariectomized rats [4] = test: Body weight, visceral fat, uterus weight and calorie uptake at end of experiment in ovariectomized rats on high-fat diet
Experimental: In order to confirm efficacies of the Tetragonia tetragonoides (Pall.) Kuntze extract prepared according to Preparation Example 1 for ameliorating menopausal obesity, rats were ovariectomized and, at the same time, obesity-induced. The rats were fed with the Tetragonia tetragonoides (Pall.) Kuntze extract, and effects of the extract on visceral fat were evaluated. Specifically, the ovariectomized rats were fed with a high-fat diet (HFD) consisting of 40% energy (En %) of carbohydrate, 20 En % of protein, and 40 En % of fat, along with dextrin. The high-fat diet was made to contain 2% (w/w) of the Tetragonia tetragonoides (Pall.) Kuntze extract, and the rats were offered ad libitum access to the diet for 8 weeks. On the other hand, in the positive-control, the ovariectomized rats received 17β-estradiol which is a hormone preparation and were fed with a diet in which the high fat diet is mixed with dextrin for 8 weeks. Then, at the end of the experiment, a body weight, a mass of visceral fat including peri-uterine fat and fat in retroperitoneum, an energy consumption, and the like were measured.

[5] = serum, overnight-fasted ovariectomized rats
[6] = ovariectomized rats, high-fat diet, 8 weeks, n = 12, means ± SD

SMILES: C[C@]12CC[C@@H]3c4ccc(O)cc4CC[C@H]3[C@@H]1CC[C@@H]2O [Positive-control, 17β-estradiol]
- Weight of uterus (ovariectomized rats [1]): 0.61 ± 0.22^a g
- Daily energy consumption (ovariectomized rats [2]; beginning of dark period): 117 ± 15^a kcal/kg^0.75/day
- Carbohydrate oxidation (ovariectomized rats [2]): 5.6 ± 0.7^b mg/kg^0.75/min
- Fat oxidation (ovariectomized rats [2]): 6.9 ± 0.8^b mg/kg^0.75/min
- HOMA-IR (ovariectomized rats [3]; fasting insulin × fasting glucose / 22.5 (Equation 1)): 6.8 ± 0.9^c
- Glucose levels (ovariectomized rats [3]; serum, overnight-fasted (16 hours) ovariectomized rats, end of experiment): 109 ± 13^b mg/dL
- HDL cholesterol (ovariectomized rats [3]; [5]): 23.2 ± 1.5^a mg/dL
- Total cholesterol (ovariectomized rats [3]; [5]): 85.0 ± 7.6^c mg/dL
- Triglyceride levels (ovariectomized rats [3]; [5]): 65.7 ± 5.8^b mg/dL
- Insulin levels (ovariectomized rats [3]; serum, overnight-fasted ovariectomized rats, radioimmunoassay): 1.14 ± 0.19^b ng/mL
- weight of uterus (proliferation of uterus, side effect of hormone therapies) (ovariectomized rats [4]; in words): increase
- Body weight (ovariectomized rats [4]; ovariectomized rats, high-fat diet with 2% (w/w) extract for 8 weeks (positive-control: 17β-estradiol), end of experiment, n = 12, means ± SD): 369 ± 26^b g
- Body weight gain (ovariectomized rats [4]; [6]): 70.0 ± 11.5^c g
- Fat in retroperitoneum (ovariectomized rats [4]; [6]): 5.7 ± 1.6^c g
- Peri-uterine fat (ovariectomized rats [4]; [6]): 7.2 ± 1.6^d g
- Weight of uterus (ovariectomized rats [4]; ovariectomized rats, high-fat diet, 8 weeks, n = 12, means ± SD, Table 2): 0.61 ± 0.22^a g
- Visceral fat (ovariectomized rats [4]; peri-uterine fat and fat in retroperitoneum, ovariectomized rats, high-fat diet, 8 weeks, n = 12, means ± SD): 12.9 ± 2.6^c g
